SMILES strings stand for the structures.

This data set is described as follows: gradient 5% acetonitrile 3 min, to 50% in 2 min, to 85% in 15 min, held 3 min, 100 µL/min. Conditions: column: Zorbax Extend-C18 2.1 x 50 mm; eluents: water / acetonitrile, 0.1% formic acid. A digest of the protocol:
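Mixtures of ~100 pure standards were chromatographed on a Zorbax Extend-C18 column (2.1 × 50 mm, 1.8 μm) at 100 μL/min using water and acetonitrile, each with 0.1% formic acid. Detection used a quadrupole time-of-flight mass spectrometer in positive and negative ionization mode, and data collection spanned 3 months. Retention time was obtained from adduct peaks picked computationally and each checked manually.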
As for `O=C(CCSCc1cnn(-c2ccccc2)c1-n1cccc1)N1CCN(c2ccccn2)CC1`, the RP-LC retention time is 707 s.

The compound `CCCc1ccc(S(=O)(=O)N2CCc3nc[nH]c3C2)cc1` came in with an RP-LC retention time of 656 s.

Take `CCc1ccc(S(=O)(=O)c2cnc(N3CCN(C4CCCCC4)CC3)nc2N)cc1`: the RP-LC retention time was determined as 706 s.

As for `CC(C)c1noc(-c2cc(=O)n(CC(=O)NCc3ccc(Cl)cc3)c3ccccc23)n1`, the RP-LC retention time turned out to be 1020 s.

`O=C(Cc1ccc(F)cc1)N1CCC2(CC1)N=C(c1ccccc1)NO2` showed an RP-LC retention time of 792 s.

`Cc1ccc(CS(=O)(=O)N2CCC(C3CCNC3)CC2)cc1C` (configuration not stated): the RP-LC retention time turned out to be 666 s.

As for `O=C(c1ccc2c(c1)OCO2)N1CCCC2(C1)NC(=O)N(Cc1ccccc1)C2=O` (configuration not stated), the RP-LC retention time was determined as 762 s.

Turning to `COc1ccc(-c2nc(C)cc(C)c2CNS(=O)(=O)c2cccc(OC)c2)cc1`, the RP-LC retention time is 656 s.

`CCc1nc2cc(-c3noc(-c4ccc(C)cc4)n3)ccc2o1` registered an RP-LC retention time of 1270 s.

The compound `COc1cc2c(cc1CNC(=O)c1ccc(Br)cc1)OCCCO2` came in with an RP-LC retention time of 939 s.

On to `Cc1nc(-n2cccc2)sc1C(=O)N1CCN(C(=O)c2ccco2)CC1`, for which the RP-LC retention time turned out to be 713 s.

`Cc1ccc(-c2nc3ccccn3c2NC(=O)Nc2cccc(C)c2)cc1` displayed an RP-LC retention time of 716 s.

`Cc1ccccc1C(=O)N1CCC2(CC1)NC(=O)c1cc(F)ccc1N2C`: the RP-LC retention time amounted to 749 s.

Take `O=C(Nc1c(-c2ccccc2)nc2ccccn12)c1c(F)cccc1F`: the RP-LC retention time turned out to be 630 s.

Consider `COc1cc(OC)cc(C(=O)Nc2nc3c(s2)Cc2c(Br)ccc(OC)c2-3)c1`, for which the RP-LC retention time was 1210 s.

In turn, `CCCc1ccc(S(=O)(=O)N2CCC3(CC2)CCC(O)(CN2CCCC2)CC3)cc1` displayed an RP-LC retention time of 735 s.

`NS(=O)(=O)c1ccc(CCNCc2ccc(-c3ccc(Cl)cc3)o2)cc1` gave an RP-LC retention time of 810 s.

In the case of `COc1ccc(NC(=O)C2CCN(S(=O)(=O)c3ccc4c(c3)NC(=O)CO4)CC2)cc1Cl`, the RP-LC retention time was 777 s.

With `Cc1cc(-c2nnc(-c3ccccc3)o2)c(C)n1CC(=O)NCc1ccccc1Cl`, the RP-LC retention time was 966 s.

Consider `Cc1cc(C)cc(-c2nc(C3CC(=O)N(c4ccc(F)cc4)C3)no2)c1` (configuration not stated), for which the RP-LC retention time was determined as 1060 s.

In turn, `COCCOC1CCC12CCN(C(=O)c1conc1C)CC2` (configuration not stated) yielded an RP-LC retention time of 706 s.

The compound `Cc1ccc(NS(=O)(=O)c2ccc(-c3c(C)noc3C)cc2)cc1C` yielded an RP-LC retention time of 996 s.

Turning to `O=C([C@H]1C[C@@H](F)CN1S(=O)(=O)Cc1ccc(Cl)cc1)N1CCOCC1`, the RP-LC retention time is 747 s.

On to `Cc1ccc(-c2cc3c(=O)n(Cc4noc(CN5CCN(C)CC5)n4)ccn3n2)cc1`, for which the RP-LC retention time is 659 s.

`Cc1ccsc1CN1CCC(n2c(C)cnc2-c2ccncc2)C1` (configuration not stated) gave an RP-LC retention time of 506 s.

`Cc1ccc(CNC(=O)Cn2c(=O)cc(-c3nc(C4CC4)no3)c3ccccc32)cc1` registered an RP-LC retention time of 950 s.

For `Cc1sc(C)c(S(=O)(=O)N2CCCCCC2)c1-c1cc(C(F)(F)F)on1`, the RP-LC retention time was 1200 s.

In turn, `Cc1cc(-c2nnc(-c3ccc(F)cc3)o2)c(C)n1CC(=O)N1CCCCC1` returned an RP-LC retention time of 877 s.

For the compound `Cc1cccc2nc(-c3cccc(Cl)c3)c(Nc3ccc4c(c3)OCCO4)n12`, the RP-LC retention time came to 717 s.

For the compound `Cc1nc(-c2csc(S(=O)(=O)N3CCCC(C(=O)Nc4ccc5c(c4)OCO5)C3)c2)no1` (configuration not stated), the RP-LC retention time is 894 s.

Compound `O=C(NCc1cccnc1)c1nnc(-c2ccc(S(=O)(=O)N3CCCC3)cc2)o1` gave an RP-LC retention time of 616 s.

`c1ccc(-c2oncc2CN2CCN(c3ccccn3)CC2)cc1` gave an RP-LC retention time of 603 s.

As for `Cc1cccc(NC(=O)Cc2cn(C)c3ncccc23)c1`, the RP-LC retention time was found to be 722 s.

In the case of `COc1cccc(-n2c(N3CCCC(C(=O)NCC4CC4)C3)nc3ccsc3c2=O)c1` (configuration not stated), the RP-LC retention time turned out to be 771 s.

In turn, `Cc1ccc(S(=O)(=O)N2CCC(n3cnc4c(C)cccc4c3=O)CC2)cc1F` returned an RP-LC retention time of 1030 s.

As to `O=c1cc(-c2cc(O)c(O)c([C@@H]3O[C@H](CO)[C@@H](O)[C@H](O)[C@H]3O)c2)oc2cc(O[C@@H]3O[C@H](CO)[C@@H](O)[C@H](O)[C@H]3O)cc(O)c12`, the RP-LC retention time is 648 s.

The compound `COC(=O)c1ccc(NC(=O)C2c3cc(F)ccc3CCN2C(=O)OC)cc1` (configuration not stated) returned an RP-LC retention time of 850 s.

Compound `Cc1oc(-c2[nH]ncc2C(=O)N2CCCCC2)cc1S(=O)(=O)Nc1ccc(F)cc1` yielded an RP-LC retention time of 738 s.

Consider `COc1ccccc1-c1coc2cc(OC(=O)c3cccc([N+](=O)[O-])c3)ccc2c1=O`, for which the RP-LC retention time is 1010 s.

In turn, `CCOC(=O)CNC(=O)NCCn1c(-c2ccc(F)cc2)nc2ccccc21` gave an RP-LC retention time of 592 s.

`Cc1ccc(C(=O)NC2CCN(c3cc(-c4cccs4)[nH]n3)C2)c(C)c1` (configuration not stated) returned an RP-LC retention time of 742 s.

`Cc1ccc(C(C)NC(=O)C2CCN(c3nccnc3Oc3ccccc3)CC2)c(C)c1` (configuration not stated): the RP-LC retention time stood at 1090 s.

In the case of `Cc1ccc(-c2nc3n(CC(=O)N4CCCCC4C)c4c(c(=O)n3n2)CCC4)cc1` (configuration not stated), the RP-LC retention time came to 1040 s.

Compound `Cc1cc(C)c(CNC(=O)C2CCN(c3cncnc3N3CCN(C)CC3)CC2)c(C)c1` had an RP-LC retention time of 598 s.

Regarding `Cc1ccc(C)c(NC(=O)N2CCC(c3nc(C(=O)N4CCOCC4)c(C)o3)CC2)c1`, the RP-LC retention time is 712 s.

As for `Cc1cccc(CN2C(=O)CCc3c(C)nc(-c4ccncc4)nc32)c1`, the RP-LC retention time was determined as 764 s.

With `Cc1nnc(NC(=O)CSc2nnc(NC(=O)Nc3cccs3)s2)s1`, the RP-LC retention time amounted to 634 s.

Compound `CCc1ccc(-n2ncc3c(=O)n(Cc4nc(-c5cc(OC)c(OC)c(OC)c5)no4)cnc32)cc1` registered an RP-LC retention time of 1080 s.

Take `Cc1ccc(C)c(NC(=O)Cn2c(=O)n(-c3ccc(F)cc3)c3ncccc32)c1`: the RP-LC retention time came to 880 s.

In turn, `O=C(Cn1cnc2c(sc3nc(-c4ccccc4)ccc32)c1=O)NCc1cccs1` registered an RP-LC retention time of 919 s.

`CCn1nccc1C(=O)NCCn1c(=O)n(Cc2ccc(F)cc2)c2cccnc21`: the RP-LC retention time is 729 s.

For the compound `CCC(=O)Nc1cc2c(cc1S(=O)(=O)c1ccc(C)cc1)n(C)c(=O)n2C`, the RP-LC retention time turned out to be 767 s.

For `CS(=O)(=O)Nc1ccc(-c2noc(-c3ccc4c(c3)OCO4)n2)cc1`, the RP-LC retention time turned out to be 897 s.

Consider `CCn1c(=O)sc2cc(S(=O)(=O)N3CCC(C(=O)N4CCC5(CC4)OCCO5)CC3)ccc21`, for which the RP-LC retention time was determined as 781 s.

The compound `O=C(NCCc1cccs1)C1CCCN(C(=O)c2cccn2-c2cccnc2)C1` (configuration not stated) displayed an RP-LC retention time of 848 s.

Compound `Cc1cnc(C2CCC2)n1CC1CCCN(Cc2cn(C)c3ccccc23)C1` (configuration not stated) registered an RP-LC retention time of 583 s.

For `CCOc1ccccc1CNC(=O)Cc1csc2nc(-c3ccccc3)cn12`, the RP-LC retention time turned out to be 830 s.

Compound `COC(=O)c1sccc1NC(=O)Cn1c(C)cc(C)c(-c2nc(-c3ccccc3)no2)c1=O` had an RP-LC retention time of 1060 s.

Take `CCCn1c(C)cnc1C1CN(S(=O)(=O)c2ccc(C)c(Cl)c2)C1`: the RP-LC retention time worked out at 710 s.

`CC(C)c1ccc(NC(=O)Cn2cccc2-c2nnc(C3CC3)o2)cc1` registered an RP-LC retention time of 961 s.

Regarding `Cc1ccccc1CNC(=O)c1cn(-c2cc(-c3nc(C4CC4)no3)ccn2)cn1`, the RP-LC retention time came to 982 s.

`CCCCCn1c(=O)c2ccccc2n(Cc2nc(-c3ccc(F)cc3)no2)c1=O` gave an RP-LC retention time of 1270 s.

In the case of `CCCc1noc(CN2N=C(C(=O)N3CCC(C)CC3)S(=O)(=O)c3ccccc32)n1`, the RP-LC retention time amounted to 954 s.

`CCOc1ccccc1-c1nc(-c2ccc3nnn(CC)c3c2)no1` gave an RP-LC retention time of 1110 s.

For the compound `O=S(=O)(Nc1nc2ccc(S(=O)(=O)N3CCCC3)cc2s1)c1ccc(F)cc1`, the RP-LC retention time amounted to 773 s.

On to `Cc1cc(C(=O)NC2CCCC2)nn1C`, for which the RP-LC retention time stood at 680 s.

The compound `CC(Cc1ccco1)NC(=O)C1CCN(S(C)(=O)=O)CC1` (configuration not stated) had an RP-LC retention time of 632 s.

Take `Cn1c(=O)sc2cc(S(=O)(=O)N3CCC(C(=O)N4CCc5ccccc5C4)CC3)ccc21`: the RP-LC retention time stood at 896 s.

With `Cc1ccc(Cn2cc(CCC(=O)N3CCN(c4ccccn4)CC3)c3ccccc32)cc1`, the RP-LC retention time is 777 s.

In turn, `CCNC(=O)c1n[nH]c2c1CN(C(=O)c1cc(F)cc(F)c1)CC2` showed an RP-LC retention time of 634 s.

In turn, `Cc1cc(C)c(S(=O)(=O)N2CCn3c(nn(CC4CC4)c3=O)C2)c(C)c1` gave an RP-LC retention time of 870 s.

Turning to `COc1ccc(N2CC(c3noc(-c4cccc(F)c4)n3)CC2=O)cc1OC` (configuration not stated), the RP-LC retention time was determined as 847 s.

In turn, `CSc1ccc(NC(=O)C2c3ccccc3Oc3ccccc32)nn1` registered an RP-LC retention time of 907 s.

Regarding `CN(C)C(CNC(=O)c1cc(-c2cccs2)on1)c1ccccc1` (configuration not stated), the RP-LC retention time was 664 s.

`CCOc1ccc(-c2nc(-c3cccc(-c4ccnn4C)c3)no2)cc1` showed an RP-LC retention time of 1230 s.

In the case of `CCC(C)NC(=O)c1cnn(-c2ccc(-c3nc(C)no3)cn2)c1C` (configuration not stated), the RP-LC retention time stood at 821 s.

As for `Cc1cccc(N2CCN(C(=O)CN3CCN(Cc4ccccc4F)C3=O)CC2)c1`, the RP-LC retention time was 864 s.
